Measured values from publication PMC6749236, “Synthesis of Novel 2-(Het)arylpyrrolidine Derivatives and Evaluation of Their Anticancer and Anti-Biofilm Activity” (Molecules, 2019).
Several values for one entry are separate records, joined by “and”; a condition that tells them apart may be missing. Equal values may be shown once. Read-outs that look alike come from different tables or passages of the source. Marks after values point to notes of the source that are not given here.

How the values were obtained:
[1] = tested on: M-Hela; test: Cytotoxicity assay (Cytell Cell Imaging, DAPI/propidium iodide), cancer cell line; assay type: cell-based; details: Homo sapiens, read-out: IC50 Cancer Cell Line M-Hela
[2] = tested on: Chang liver cell line; test: Cytotoxicity assay (Cytell Cell Imaging), normal cell line; assay type: cell-based; details: Homo sapiens, read-out: IC50 Normal Cell Line Chang Liver
[3] = tested on: P388 murine leukemia; test: In vivo anti-tumor activity, i.p. implanted leukemia; set-up: species or system BDF1 hybrid male mice; details: for ILS / MST ± SD: P388; for Survival: day 60
Procedure: Animals. In vivo experiments were performed using the BDF1 hybrid male mice of 22–24 g weight. The experimental animals were caged in a standard vivarium in 12 h light conditions with free access to food and water. All manipulations with the animals were performed in accordance with the solutions of the Commission on Bioethics of the Institute of Problems of Chemical Physics, Russian Academy of Sciences (IPCP RAS).
Anti-tumor activity. The tumors were transplanted intraperitoneally (i.p.) in accordance with a standard procedure inoculum: 10^6 tumor cells in isotonic solution of NaCl, V = 0.2 cm^3 (leukemia P388). Original compounds were injected intraperitoneally as aqueous solution. Doses from 18 to 83 mg/kg/day and the mode of administration on days 1, 5, and 9 after transplantation were used. In each experiment, a single group of tumor-bearing animals not injected with the compounds served as the control group. Each group consisted of six mice. The animals were observed daily for survival for a minimum of 60 days. The efficacy of the therapy against leukemia (defined as increase in lifespan—ILS) was assessed as the percentage of the median survival time (MST) of the treated group (t) to that of the control group (c): ILS(%) = (MSTt/MSTc) × 100.
Statistics. The experiments were carried out in triplicate. The data are presented in the form X ± SD (mean ± standard deviation). The significance of the differences between the groups was assessed using Student’s t-test. Values of p < 0.05 were considered statistically significant. The data were processed statistically using GraphPad Prism.

[4] = Water solubility (selection for parenteral administration); assay type: physicochemical
[5] = tested on: Acinetobacter calcoaceticus VKPM B-10353; test: Biofilm formation, crystal violet assay; assay type: cell-based; details: A. calcoaceticus VKPM B-10353, control = 100%
Procedure: (§1) Bacterial strains and cultivation conditions. For the detection of biofilms, formation strains Vibrio aquamarinus DSM 26054 and Acinetobacter calcoaceticus VKPM B-10353 were used. These strains form biofilms, making them useful for studying biofilms.
(§2) The bacterial strains Acinetobacter calcoaceticus VKPM B-10353, E. coli MG1655 (pRecA-lux), and E. coli MG1655 (pSoxS-lux) were cultivated in Luria–Bertani (LB) medium under constant shaking to early exponential phase at 37 °C. Cells were used immediately for stress induction tests. One hundred micrograms of ampicillin per milliliter were added into LB medium at cultivation of E. coli MG1655 (pRecA-lux) and E. coli MG1655 (pSoxS-lux). Strain V. aquamarinus DSM 26054 was grown in LB medium supplemented with 3% NaCl.
(§3) The test compounds were dissolved in DMSO to the concentration of 1 × 10^−2 M. Then, they were diluted with ethanol. The control solutions were analogous dilutions of DMSO in ethanol. The tested compounds were also compared with the standard antibiotic azithromycin. Azithromycin was dissolved in DMSO to the concentration of 5 × 10^−3 M and then diluted with deionized water.
(§4) Test system for evaluation of biofilms production. To quantify the formation of biofilms, the crystal violet assay was used, with some modifications. The necessary concentrations of the test compounds were prepared as described above.
(§5) V. aquamarinus DSM 26054 was cultivated for 24 h in LB medium supplemented with 3% NaCl in the Innova 40R shaker incubator (New Brunswick Scientific, USA) at 25 °C and 200 rpm. A. calcoaceticus VKPM B-10353 was cultivated for 24 h in LB medium in the Innova 40R shaker incubator (New Brunswick Scientific, Enfield, CT, USA) at 30 °C and 200 rpm. Then, the suspensions of the daily culture of V. aquamarinus DSM 26054 and A. calcoaceticus VKPM B-10353 were diluted with LB medium supplemented with 3% NaCl to the density of 1 × 10^8 cells/mL.
(§6) The resulting suspension (180 μL) was added to the wells of a polystyrene microplate (Nuova Aptaca, Canelli, Italy). To some of the wells, 20 μL of the test substances at various concentrations were added. Since solvents used could also influence the biofilm formation, 20 μL of the appropriate solvent was added to the other part of the wells at same dilutions (control). Six replicates were done for each treatment and control. The microplate was covered with a lid and wrapped with Parafilm (Bemis Company, Inc., Oshkosh, WI, USA).
(§7) After incubation at 25 °C for 72 h, biofilms were stained. The contents in the wells were removed by means of a dispenser. The wells were then carefully washed three times with 250 μL of sterile saline. The microplates were shaken to remove all non-adherent bacteria. Biofilms were fixed with 200 μL of 96% ethanol for 15 min. After the microplates had dried in air, 200 μL of 0.5% crystal violet was introduced into the wells. After 10 min, the dye was removed. The excess dye was removed by washing with water three times. After the microplates were air-dried, the dye in the wells bound to biofilms was dissolved with 200 μL of 96% ethanol. The extraction level (absorption) of crystal violet by ethanol was measured after 60 minutes at a wavelength of 570 nm using a FLUOstar Omega microplate reader (BMG Labtech, Offenburg, Germany) in optical density units (OD570). The intensity of biofilm formation directly corresponds to the intensity of staining of the contents of the wells with the dye. Biofilm formation was determined by the difference between the mean OD readings obtained in the presence of compounds and the control.
(§8) Each experiment was performed in triplicate. The values were expressed as mean + SD. Student’s t-test was used to compare these values. Differences were considered statistically significant at p < 0.05.

[6] = tested on: Vibrio aquamarinus DSM 26054; test: Biofilm formation, crystal violet assay; assay type: cell-based; details: V. aquamarinus DSM 26054, control = 100%
Procedure: as §1, §2, §3, §4, §5, §6, §7, §8

[7] = tested on: Escherichia coli MG1655 (pRecA-lux); test: Genotoxicity, bacterial lux-biosensor; assay type: cell-based
Source text: (§9) E. coli MG1655 (pRecA-lux) was used for the evaluation of the genotoxicity of the synthesized compounds. The biosensor with the PrecA promotor fixes the presence of the factors causing damage of DNA in a cell. The biosensor E. coli MG1655 (pSoxS-lux) was used for the evaluation of prooxidant activity. The biosensor with the PsoxS promoter fixes the production of superoxide anion and NO [75]. Bioluminescent strains were obtained by the transformation of E. coli MG1655 by hybrid plasmids pRecA-lux, pSoxS-lux. The gene cassette luxCDABE Photorhabdus luminescens under the control PrecA promoters was used in this biosensor. This plasmid was created on the basis of pBR322 and contained a selective marker of ampicillin resistance (Amp gene). The strains were kindly furnished by Manukhov I.V., Federal State Unitary Enterprise “GosNIIGenetika”).
as §2
(§10) Biosensors assay procedure. The detailed protocol of toxicity testing by means of a bacterial lux-biosensors is described in the article.
(§11) Calculation. The criterion of toxic influence was bioluminescence intensity change of the test object in the researched sample in comparison with the control sample.
(§12) The induction factor (I) was defined as the relation of luminescence intensity of a lux-biosensor suspension containing tested sample (Lc) to the luminescence intensity of a lux-biosensor control suspension (Lk): I = Lc/Lk.
If at significant differences from control induction factor values were ≤2, the detected genotoxic effect was evaluated as “weak”, if they were in the range from 2 to 10 as “medium”, and above 10 as “strong”. All the experiments were carried out three times independently.
(§13) Difference reliability of bioluminescence in experiment from control value was estimated by t-criterion with the help of Excel software. The conclusions about sample toxicity were made at p < 0.05.

[8] = tested on: E. coli MG1655 (pSoxS-lux); test: Prooxidant activity, bacterial lux-biosensor; assay type: cell-based, Escherichia coli
Source text: as §9, §2, §10, §11, §12, §13

[9] = 18 mg/kg/day i.p., days 1, 5, 9
[10] = 26 mg/kg/day i.p., days 1, 5, 9
[11] = 40 mg/kg/day i.p., days 1, 5, 9
[12] = 55 mg/kg/day i.p., days 1, 5, 9
[13] = 83 mg/kg/day i.p., days 1, 5, 9

O=C(Nc1ccccc1)N1CCCC1c1cc2c(cc1O)OCO2 (stereo not drawn) [5b, 2-(6-Hydroxybenzo[d][1,3]dioxol-5-yl)-N-phenylpyrrolidine-1-carboxamide]
IC50 ([1]; M-HeLa): > 100 µM | IC50 [2]: > 100 µM | ILS [3, 9]: 177% | MST ± SD [3, 9]: 27.7 ± 10.3 days | Survival ([3]; 18 mg/kg/day): 33% | ILS [3, 10]: 165% | MST ± SD [3, 10]: 26.5 ± 10.6 days | Survival ([3]; 26 mg/kg/day): 33% | ILS [3, 11]: 160% | MST ± SD [3, 11]: 26.0 ± 10.8 days | Survival ([3]; 40 mg/kg/day): 33% | ILS [3, 12]: 80% | MST ± SD [3, 12]: 18.0 ± 8.4 days | Survival ([3]; 55 mg/kg/day): 17% | ILS [3, 13]: 0% | MST ± SD [3, 13]: 9.7 ± 0.2 days | Survival ([3]; 83 mg/kg/day): 0% | Survivors/Total ([3]; 83 mg/kg/day, survivors on day 60): 0/6 | antitumor (anti-leukemic) activity, in words ([3]; P388, dose range 18–83 mg/kg/day i.p., days 1, 5, 9): pronounced anti-leukemic activity | solubility in water, in words [4]: water-soluble

COc1ccc(NC(=O)N2CCCC2c2ccc(Nc3c([N+](=O)[O-])c(Cl)cc4c3no[n+]4[O-])cc2O)cc1 (stereo not drawn) [6c, 6-Chloro-4-((3-hydroxy-4-(1-((4-methoxyphenyl)carbamoyl)pyrrolidin-2-yl)phenyl)amino)-5-nitrobenzo[c][1,2,5]oxadiazole 1-oxide]
IC50 ([1]; M-Hela, tested at 1–100 µM, three independent experiments): 26 ± 1.9 µM | IC50 ([2]; tested at 1–100 µM, three independent experiments): 62 ± 4.3 µM | Biofilm Formation ([5]; 1 × 10^−5 M): 82.82% | Biofilm Formation ([5]; 1 × 10^−6 M): 79.31 * % | Biofilm Formation ([5]; 1 × 10^−7 M): 72.77 * % | Biofilm Formation ([5]; 1 × 10^−8 M): 55.74 * % | Biofilm Formation ([5]; 1 × 10^−9 M): 93.75% | Biofilm Formation ([6]; 1 × 10^−5 M): 26.65 * % | Biofilm Formation ([6]; 1 × 10^−6 M): 18.28 * % | Biofilm Formation ([6]; 1 × 10^−7 M): 9.22% and 9.22 * % | Biofilm Formation ([6]; 1 × 10^−8 M): 14.67 * % | Biofilm Formation ([6]; 1 × 10^−9 M): 13.54% and 13.54 * % | genotoxicity under conditions of metabolic activation, in words ([7]; +S9, concentration range of 10^−7–10^−6 M): registered | detected genotoxic effect, class ([7]; concentration range of 10^−9–10^−5 M): medium (in the range from 2 to 10) | Genotoxicity (induction factor, I) ([7]; with metabolic activation (+S9), 10^−5 M): 1.35 ± 0.02 | Genotoxicity (induction factor, I) ([7]; with metabolic activation (+S9), 10^−6 M): 1.54 ± 0.03 | Genotoxicity (induction factor, I) ([7]; with metabolic activation (+S9), 10^−7 M): 1.49 ± 0.02 | Genotoxicity (induction factor, I) ([7]; with metabolic activation (+S9), 10^−8 M): 1.37 ± 0.02 | Genotoxicity (induction factor, I) ([7]; with metabolic activation (+S9), 10^−9 M): 1.30 ± 0.01 | Genotoxicity (induction factor, I) ([7]; without metabolic activation (-S9), 10^−5 M): 2.33 ± 0.04 | Genotoxicity (induction factor, I) ([7]; without metabolic activation (-S9), 10^−6 M): 2.82 ± 0.05 | Genotoxicity (induction factor, I) ([7]; without metabolic activation (-S9), 10^−7 M): 2.64 ± 0.14 | Genotoxicity (induction factor, I) ([7]; without metabolic activation (-S9), 10^−8 M): 2.84 ± 0.02 | Genotoxicity (induction factor, I) ([7]; without metabolic activation (-S9), 10^−9 M): 2.67 ± 0.07 | Prooxidant activity (induction factor) ([8]; 10^−5 M): 0.96 ± 0.09 | Prooxidant activity (induction factor) ([8]; 10^−6 M): 1.46 ± 0.03 | Prooxidant activity (induction factor) ([8]; 10^−7 M): 1.68 ± 0.20 | Prooxidant activity (induction factor) ([8]; 10^−8 M): 1.54 ± 0.20 | prooxidant response, in words ([8]; 10^−8–10^−7 M): weak response | Prooxidant activity (induction factor) ([8]; 10^−9 M): 1.11 ± 0.03 | melting point: 196 to 202 °C (dec.)
